The results in this text go back to US20260130952A1, “ENGINEERED BACTERIA AND METHODS OF USE IN TUMOR REMODELING” (priority 2021, published 2026).

The assay concerns 4T1 tumors. In words: Antitumor study in 4T1 syngeneic tumor model. The class given is in vivo, BALB/cJ mice. On the procedure: 6-8 weeks old female BALB/cJ and male C57BL/6 mice (Jackson Labs) were used in all experiments. For tumor induction, […] tumor cells/0.1 ml saline (4T1, MDA-MB-231, RInk1, PANC1, MC38) were injected subcutaneously in the shaved right flank of anesthetized (2% isoflurane) mice. Tumor measurements were taken every alternate day and tumor volume was calculated using the following formula: 0.5*length*width*width. For therapeutic assessment or bioluminescent imaging, each bacterial dose contained […] bacteria suspended in 0.1 ml saline was administered intravenously. Lapatinib was suspended in a solution containing 0.5% w/v HPMC and 0.10% w/v Tween 80 and each dose delivered 5 mg/Kg orally. At the study end point the mice were euthanized via carbon dioxide inhalation and cervical dislocation followed by collection of organs. For cytokine profiling, blood withdrawal was performed after a period of 24 hours via the submandibular vein and collected in tubes containing heparin as an anticoagulant (40 U/ml of blood). […]
To test the hypothesis, mice were treated orally with lapatinib at a dose of 5 mg/kg (FIG. 5A). The following 5 treatment groups were assessed in parallel: control mice with saline injections, non-hypervesiculating ECHy+lapatinib, ΔECHy, lapatinib and ΔECHy+lapatinib (n=5). Tumor volume was measured every alternate day. […]

In the case of `CS(=O)(=O)CCNCc1ccc(-c2ccc3ncnc(Nc4ccc(OCc5cccc(F)c5)c(Cl)c4)c3c2)o1` [lapatinib], the median survival (endpoint tumor size 1000 mm^3, bacteria 10^6 i.v., lapatinib 5 mg/kg oral, anti-PDL1 5 mg/kg) is given as 20 days. Moreover, the “tumor growth rate / progression” value (n=5) is “comparatively slower”.
